According to publication PMC12040169 (PLOS Biology, 2025):

experiment: in vitro; conditions: human, hela cells, % viability

Point of comparison: CC(C)Cn1cnc2c(Cl)nc3ccccc3c21 [CBK017530], viability at 28.5 h, 10 µM 86.4%. Against it:
- Cc1ccc(C(=O)NCCNC(=O)CN2CCCC2)cc1 [CBK264103] — higher, 92.5%
- Cc1ccc(-n2cccn2)cc1S(=O)(=O)NCCN1CCCCC1CO (centres unmarked) [CBK307163] — higher, 122%
- O=C(Nc1cccnc1N1CCNCC1)c1ccc(-c2cccc(C(F)(F)F)c2)o1 [CBK034119T] — higher, 90.1%
- COCCOC(=O)C1=C(C)NC2=C(C(=O)CC(c3ccc(OC)cc3)C2)C1c1ccc(F)cc1 (centres unmarked) [CBK293921] — higher, 88.9%
- Cc1ncsc1C(=O)NCc1ccc(S(=O)(=O)N2CCCCC2)cc1 [CBK305556] — higher, 89.9%
- Cc1ccc(CC(=O)N2CCC(Cc3ccccc3-c3ccccc3C)(C(N)=O)CC2)cc1 [CBK285727] — higher, 98.2%
- COc1ccc(-c2cnc3[nH]c(=O)n([C@H](C)c4ccccc4)c3n2)c(OC)c1OC [CBK064236] — higher, 94.7%
- O=C(COc1ccc2ccccc2c1)Nc1ccc(S(=O)(=O)N2CCc3ccccc32)cc1 [CBK263802] — higher, 91.5%
- COc1cc2c(cc1-c1nccn1CC1CN(C(C)=O)CCO1)CCC2 (centres unmarked) [CBK306850] — higher, 88.7%
- CN(Cc1ccccc1)S(=O)(=O)c1ccc2c(c1)n(C)c(=O)n2C [CBK266644] — higher, 95.6%
- O=C1NC2(CCN(C(=O)C3CCCC3)CC2)Nc2ccccc21 [CBK283962] — higher, 94.9%
- Cc1cccc(C2CCCN(C(=O)Nc3cnn(C)c3)C2)c1 (centres unmarked) [CBK306961] — higher, 102%
- CN(C)CCN(C)c1cncc(-c2ccc3ccccc3c2)n1 [CBK037146] — lower, 77.7%
- Cc1csc(N2CCN(C(=O)CCc3nc(C(C)C)no3)CC2)n1 [CBK305341] — higher, 99.4%
- CC1=NN(c2nc(-c3ccc(Br)cc3)cs2)C(=O)C1/N=N/c1cccc(CO)c1 (centres unmarked) [CBK262429] — higher, 104%
- CC(=O)Nc1ccc(NCc2csc(C3CCCO3)n2)c(C(F)(F)F)c1 (centres unmarked) [CBK304161] — higher, 101%
- CN(CCN(C)/N=C/c1c2ccccc2cc2ccccc12)/N=C/c1c2ccccc2cc2ccccc12 [CBK262039] — higher, 94.8%
- COC(=O)c1ccccc1NC(=O)c1ccc(-n2cnnn2)cc1 [CBK058360] — higher, 91.1%
- CC(=O)c1sc2nc(C)cc(C)c2c1N [CBK131882] — higher, 90.5%
- O=C(CN1C(=O)N2CCCN=C2c2ccccc21)NC1CCCC1 [CBK284397] — lower, 82.6%
- CCN(CC)CCN1C(=O)C(O)=C(C(=O)c2cc3ccccc3o2)C1c1ccccn1 (centres unmarked) [CBK266413] — lower, 86.1%
- CCCC1=NNC(=O)C1Cc1c(F)cccc1Cl (centres unmarked) [CBK067753] — higher, 88.8%
- O=C(Cn1ncc2cccn2c1=O)Nc1ccc(F)cc1 [CBK283672] — higher, 107%
- N=C1OC2CSCC2N1C(=O)Cc1c(F)cccc1Cl (centres unmarked) [CBK284517] — lower, 84.9%
- Cn1cnnc1C1CCN(C(=O)CC2OCCc3sccc32)CC1 (centres unmarked) [CBK304912] — higher, 90.2%
- c1cncc(CN2CCN(Cc3c[nH]c4ccccc34)CC2)c1 [CBK218281] — higher, 92.2%
- O=C(O)CCCC(=O)NCCc1ccc(Cl)cc1Cl [CBK296930] — higher, 88.8%
- CCc1nc2c(OCC3CCCCC3)cccn2c1N(C=O)Cc1ccc(OC)cc1 [CBK147811] — higher, 100%
- O=C(Cn1c(=O)n(Cc2cccs2)c2ncccc21)NC1CC1 [CBK283898] — higher, 90.6%
- Cc1ccc2cc(CN3CCCC(N)CC3)c(N3CCOCC3)nc2c1 (centres unmarked) [CBK307693] — lower, 83.5%
- CN1CCN(NC(=O)C23CCC(C)(C(=O)O2)C3(C)C)CC1 (centres unmarked) [CBK268285] — higher, 99.1%
- OCCN1CCN(CCCc2ccccc2)CC1 [CBK261872] — lower, 86%
- CN(C)c1nc2ccc(OCCN3CCOCC3)cc2s1 [CBK261135] — lower, 82.5%
- COc1cc(NC(=O)c2cc([N+](=O)[O-])ccc2N2CCOCC2)ccc1-c1cc2ccccc2oc1=O [CBK269128] — lower, 84.9%
- Cc1ccc(Nc2nc(N)nc(CN3CCCC3)n2)cc1 [CBK270163] — higher, 97.7%
- Cn1c(CCC(=O)NCC(C)(C)N2CCCCC2)nc2ccccc21 [CBK281877] — higher, 92.9%
- FC(F)(F)c1[nH]c2ncccc2c1CN1CCSCC1 [CBK283257] — higher, 87.7%
- O=[N+]([O-])c1ccc(O)c(/C=N/c2ccc(Oc3ccc(/N=C/c4cc([N+](=O)[O-])ccc4O)cc3)cc2)c1 [CBK261093] — higher, 96.7%
- O=C(NC(Cc1cccs1)c1nccs1)c1cc[nH]n1 (centres unmarked) [CBK285052] — higher, 87.4%
- Cc1nn(C)c(Cl)c1S(=O)(=O)Nc1cccc(-c2nnn[nH]2)c1 [CBK062127] — higher, 96%
- C#CC1(OC(=O)CC)CCN(CCCC(=O)c2ccc(F)cc2)CC1 [CBK025277C] — higher, 108%
- CC(C)c1nnc(CCC(=O)N2CCC(c3ccccc3)C2)o1 (centres unmarked) [CBK281925] — higher, 89.3%
- N#C/C(=C\c1cn(-c2ccccc2)nc1-c1ccc(S(=O)(=O)N2CCCCC2)cc1)c1nc2ccccc2c(=O)[nH]1 [CBK266268] — higher, 101%
- CCOc1ccc(N2C(=O)CC(NC3CCN(c4ncccn4)CC3)C2=O)cc1 (centres unmarked) [CBK269972] — higher, 112%
- O=C(c1cncnc1)N1CCC2(CCN(C(=O)c3cc(F)c(F)cc3F)C2)C1 (centres unmarked) [CBK131405] — higher, 94.8%
- Cc1ccc(NC(=O)CCC(=O)O)c(C(=O)c2ccccc2)c1 [CBK262611] — higher, 108%
- O=C(c1n[nH]nc1-c1ccccc1)N1CCCC(C(F)(F)F)C1 (centres unmarked) [CBK164228] — higher, 96.1%
- O=C(CCSCc1nc2sc3c(c2c(=O)[nH]1)CCC3)N1CCC1 [CBK304536] — lower, 75.7%
- CC1NC(C(=O)O)Cc2c1[nH]c1ccccc21 (centres unmarked) [CBK218664] — higher, 102%
- COC(=O)c1cc(Cl)c2ccccc2n1 [CBK012428] — lower, 80.4%
- c1ccc(CCN2CCC(Oc3cncc(OCCN4CCOCC4)n3)C2)cc1 (centres unmarked) [CBK084497] — higher, 87.6%
- N#CC(C(=O)CN1CCN(Cc2ccccc2)CC1)c1ccccc1 (centres unmarked) [CBK269386] — higher, 99.6%
- Cc1cccc(=O)n1CCC(=O)N1CCCCC1CN1CCOCC1 (centres unmarked) [CBK306528] — higher, 109%
- CCOC(=O)NC(=O)C(C#N)/C=N/NC(=O)CCCNc1ncc(C(F)(F)F)cc1Cl (centres unmarked) [CBK008354] — higher, 101%
- FC(F)(F)c1nc2ccccc2nc1Sc1nc[nH]n1 [CBK093808] — higher, 87.6%
- CCn1c(SCC(=O)N2CCCC2)nc2cc(C)[nH]c2c1=O [CBK288027] — higher, 99.9%
- Cc1c(C(=O)O)sc(S(=O)(=O)N2CCN(C(=O)c3ccc(F)cc3)CC2)c1C(=O)O [CBK297118] — higher, 107%
- Nc1ccc(S(=O)(=O)NC2(C(F)(F)F)NC(=O)N(c3ccccc3Cl)C2=O)cc1 (centres unmarked) [CBK268003] — higher, 107%
- CC(C)(C)C(=O)N1CCN(Cc2ccc3c(c2)OCO3)CC1 [CBK074842] — higher, 88.8%
- CCn1c(SCC(=O)Nc2ccc([N+](=O)[O-])cc2)nnc1C(NC(=O)c1ccccc1)C(C)C (centres unmarked) [CBK107508] — higher, 94.9%
- COc1ccccc1-c1nccnc1N1CCCC1CO (centres unmarked) [CBK036735] — higher, 102%
- O=C(Cc1cccnc1)N1Cc2ccccc2C1 [CBK200320] — higher, 90.5%
- COc1ccc2[nH]c3c(c2c1)CCNC31CCN(Cc2ccccc2)C1 (centres unmarked) [CBK073952C] — higher, 86.5%
- Cc1ccc(C(=O)N2CCN(Cc3cc(=O)n4ccsc4n3)CC2)cc1 [CBK305057] — higher, 107%
- Nc1ncc(-c2ccco2)nc1-c1ccc(C(=O)NCCO)cc1 [CBK064124] — higher, 91.1%
- O=C(c1ccc2nc[nH]c2c1)N1CCC2(CCN(Cc3ccccc3)C2)C1 (centres unmarked) [CBK136862] — higher, 94.1%
- Cc1cc(CNC(=O)/C=C/c2ccc(C(C)C)cc2)no1 [CBK149614] — higher, 103%
- CN(C)c1ccc(/C=N/NC(=O)CSc2nnc(-c3ccccc3)n2-c2ccccc2)cc1 [CBK262263] — higher, 90.2%
- CCN(CC)CCNc1c(N)c(=O)oc2ccccc12 [CBK261469] — higher, 91.7%
- Cc1cc(Cl)ccc1OCCCc1nnc(S)n1C [CBK288396] — lower, 85.1%
- C1C/C(=N/N=C2\CCCc3nonc32)c2nonc2C1 [CBK006721] — higher, 93.9%
- Cc1ccn2c(C(=O)N(C)CCc3noc(C(C)C)n3)nnc2n1 [CBK306670] — higher, 89.3%
- CCCC(=O)N1CCCC(c2nnc(-c3cccs3)o2)C1 (centres unmarked) [CBK283057] — lower, 83.6%
- Cc1cc(C[C@@H]2COC[C@H]2NCc2ccc(Cl)cc2)on1 [CBK285402] — higher, 93.3%
- NNC(=O)CCc1nc2ccc(O)cc2[nH]1 [CBK263633] — higher, 93%
- c1ccc2c(c1)CCCN2Cc1ncc[nH]1 [CBK138332] — higher, 89.2%
- CC(C)Nc1cc(SC2CCCCC2)ncn1 [CBK107163] — higher, 92.4%
- COC(=O)c1ccc(-n2cc(-c3cccc(C(F)(F)F)c3)nn2)cc1 [CBK112936] — higher, 90%
- NCCCNC(=O)c1ccc(/C=N/O)nc1 [CBK264524] — higher, 110%
- O=C(O)COc1ccc(/C=N/n2cnnc2)cc1Cl [CBK263902] — higher, 99.3%
- Cc1cc2c(cc1C)NC(CC(=O)Nc1ccc(N(C)C)cc1)C(=O)N2 (centres unmarked) [CBK265595] — lower, 85.8%
- CCN(CC)CCN1C(=O)C(O)=C(C(=O)c2ccc3c(c2)OCO3)C1c1cccnc1 (centres unmarked) [CBK266465] — higher, 99.6%
- Cc1cc(CN2CCN(S(=O)(=O)c3ccc(-c4ccccc4)cc3)CC2)cc(C)c1O [CBK062747] — higher, 115%
- C#CCOC(=O)Nc1cnc(N2CCOCC2)c(C(F)(F)F)c1 [CBK019679] — higher, 90.5%
- NC(=O)c1c(NC(=O)CSc2nnc(-c3ccccc3)n2CC2CCCO2)sc2c1CCC2 (centres unmarked) [CBK084789] — higher, 110%
- Cc1ccccc1OCC(=O)NCC1(N2CCCCC2)CCCCC1 [CBK297752] — higher, 89.5%

same assay, conditions: human, hela cells, % viability, bulk resorufin, single well

Point of comparison: S=C(Nc1ccc2nc3c4ccccc4c4ccccc4c3nc2c1)N1CCOCC1 [CBK263153], viability at 28.5 h, 10 µM 94.7%. Against it:
- O=C1NC(=O)C(=Cc2ccccc2OS(=O)(=O)c2ccc3ccccc3c2)C(=O)N1 [CBK263599] — lower, 64%
